According to article PMC6895180 (Nature Communications, 2019):
Where “and” joins values, the source holds several entries; their conditions need not be identical. Equal values may be shown once.

Key:
[1] = tested on: T. brucei Squib 427; assay: microbe, parasite or virus in culture; assay type: cell-based, Trypanosoma brucei brucei
[2] = tested on: T. brucei BSF s427 wildtype cells; assay: Growth assays of T. brucei (trypanocidal/trypanostatic effect); assay type: cell-based, Trypanosoma brucei
Method: Growth assays of T. brucei
To test the effect of the novel adenosine analogues on the growth of T. brucei BSF, s427 wildtype cells were seeded at 1×10^5 cells mL-1 in 5 mL of HMI-9 medium with 10% FBS and treated with compounds […]
cells were also incubated in drug-free medium under the same conditions. 2 μM of 2’-deoxycoformycin were added to all cultures to avoid any potential effect of serum adenosine deaminase on the activity of test compounds and cordycepin.1
Cells were manually counted in Neubauer chambers at 0, 2, 4, 6, 8, 12, 24, 36 and 48 h after addition of […]
the drugs. […]
After 6 and 12 h after addition of drugs, approximately 2×10^6 cells were harvested from each group and applied to glass slides pre-treated with poly-L-lysine, left to settle for 5 min and fixed with 4% formaldehyde for 4 min. The formaldehyde was neutralised by addition of 100 mM glycine (20 min).
Cells were washed once with PBS and blocked for 1 h with 1% BSA/0.2% Tween-20 in PBS. Cells were […]

[3] = molecular target: P2 transporter (TbAT1) (Trypanosoma brucei brucei, UniProt Q9Y0I0); assay: cell-based; conditions: for Ki: P2 transporter Ki
Method: Non-specific association of radiolabel with the cell pellet was determined using an identical incubation in the presence of saturating (1 mM) unlabelled adenosine.

P2 transporter (TbAT1), sequence (Q9Y0I0 entry or part of it): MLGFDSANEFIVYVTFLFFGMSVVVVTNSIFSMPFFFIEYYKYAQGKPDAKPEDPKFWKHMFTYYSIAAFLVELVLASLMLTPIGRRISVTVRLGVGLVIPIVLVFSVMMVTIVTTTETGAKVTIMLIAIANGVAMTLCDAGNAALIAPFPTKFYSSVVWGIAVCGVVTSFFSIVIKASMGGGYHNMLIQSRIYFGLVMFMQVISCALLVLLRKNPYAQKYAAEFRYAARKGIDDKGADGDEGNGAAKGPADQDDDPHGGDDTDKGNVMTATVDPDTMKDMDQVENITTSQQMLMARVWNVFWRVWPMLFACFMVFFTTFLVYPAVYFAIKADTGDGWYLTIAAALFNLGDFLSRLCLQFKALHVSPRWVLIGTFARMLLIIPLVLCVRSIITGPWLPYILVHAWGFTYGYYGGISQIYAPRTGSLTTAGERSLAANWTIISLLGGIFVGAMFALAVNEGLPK

Nc1ncnc2c1c(Br)cn2[C@@H]1O[C@H](CO)[C@@H](O)[C@H]1O [Compound 8, 7-bromotubercidin]
EC50 ([1]; Trypanosoma brucei, Alamar blue cell viability assay, mean and SEM, read-out: T. b. brucei EC50): 1.2 ± 0.3 µM | SI (MRC/T.b. brucei) ([1]; selectivity index): 10 | AVG of cells/mL ([2]; 2xEC50, 2 h, experiment 1): 142500 cells/mL | Cells/mL ([2]; 2xEC50, 2 h, experiment 1): 127500 Cells/mL and 157500 Cells/mL | Counts ([2]; 2xEC50, 2 h, experiment 1): 51 and 63 | AVG of cells/mL ([2]; 2xEC50, 2 h, experiment 2): 155000 cells/mL | Cells/mL ([2]; 2xEC50, 2 h, experiment 2): 145000 Cells/mL and 165000 Cells/mL | Counts ([2]; 2xEC50, 2 h, experiment 2): 58 and 66 | AVG of cells/mL ([2]; 2xEC50, 4 h, experiment 1): 146250 cells/mL | Cells/mL ([2]; 2xEC50, 4 h, experiment 1): 140000 Cells/mL and 152500 Cells/mL | Counts ([2]; 2xEC50, 4 h, experiment 1): 61 and 56 | AVG of cells/mL ([2]; 2xEC50, 4 h, experiment 2): 162500 cells/mL | Cells/mL ([2]; 2xEC50, 4 h, experiment 2): 140000 Cells/mL and 185000 Cells/mL | Counts ([2]; 2xEC50, 4 h, experiment 2): 74 and 56 | AVG of cells/mL ([2]; 2xEC50, 6 h, experiment 1): 147500 cells/mL | Cells/mL ([2]; 2xEC50, 6 h, experiment 1): 132500 Cells/mL and 162500 Cells/mL | Counts ([2]; 2xEC50, 6 h, experiment 1): 53 and 65 | AVG of cells/mL ([2]; 2xEC50, 6 h, experiment 2): 175000 cells/mL | Cells/mL ([2]; 2xEC50, 6 h, experiment 2): 175000 Cells/mL | Counts ([2]; 2xEC50, 6 h, experiment 2): 70 | AVG of cells/mL ([2]; 2xEC50, 8 h, experiment 1): 175000 cells/mL | Cells/mL ([2]; 2xEC50, 8 h, experiment 1): 185000 Cells/mL and 165000 Cells/mL | Counts ([2]; 2xEC50, 8 h, experiment 1): 74 and 66 | AVG of cells/mL ([2]; 2xEC50, 8 h, experiment 2): 166250 cells/mL | Cells/mL ([2]; 2xEC50, 8 h, experiment 2): 180000 Cells/mL and 152500 Cells/mL | Counts ([2]; 2xEC50, 8 h, experiment 2): 72 and 61 | AVG of cells/mL ([2]; 2xEC50, 12 h, experiment 1): 185000 cells/mL | Cells/mL ([2]; 2xEC50, 12 h, experiment 1): 185000 Cells/mL | Counts ([2]; 2xEC50, 12 h, experiment 1): 74 | AVG of cells/mL ([2]; 2xEC50, 12 h, experiment 2): 181250 cells/mL | Cells/mL ([2]; 2xEC50, 12 h, experiment 2): 190000 Cells/mL and 172500 Cells/mL | Counts ([2]; 2xEC50, 12 h, experiment 2): 76 and 69 | AVG of cells/mL ([2]; 2xEC50, 24 h, experiment 1): 211250 cells/mL | Cells/mL ([2]; 2xEC50, 24 h, experiment 1): 227500 Cells/mL and 195000 Cells/mL | Counts ([2]; 2xEC50, 24 h, experiment 1): 91 and 78 | AVG of cells/mL ([2]; 2xEC50, 24 h, experiment 2): 167500 cells/mL | Cells/mL ([2]; 2xEC50, 24 h, experiment 2): 165000 Cells/mL and 170000 Cells/mL | Counts ([2]; 2xEC50, 24 h, experiment 2): 66 and 68 | AVG of cells/mL ([2]; 2xEC50, 36 h, experiment 1): 350000 cells/mL | Cells/mL ([2]; 2xEC50, 36 h, experiment 1): 322500 Cells/mL and 377500 Cells/mL | Counts ([2]; 2xEC50, 36 h, experiment 1): 129 and 151 | AVG of cells/mL ([2]; 2xEC50, 36 h, experiment 2): 212500 cells/mL | Cells/mL ([2]; 2xEC50, 36 h, experiment 2): 220000 Cells/mL and 205000 Cells/mL | Counts ([2]; 2xEC50, 36 h, experiment 2): 88 and 82 | AVG of cells/mL ([2]; 2xEC50, 48 h, experiment 1): 365000 cells/mL | Cells/mL ([2]; 2xEC50, 48 h, experiment 1): 365000 Cells/mL | Counts ([2]; 2xEC50, 48 h, experiment 1): 146 | AVG of cells/mL ([2]; 2xEC50, 48 h, experiment 2): 152500 cells/mL | Cells/mL ([2]; 2xEC50, 48 h, experiment 2): 142500 Cells/mL and 162500 Cells/mL | Counts ([2]; 2xEC50, 48 h, experiment 2): 57 and 65 | effect on T. brucei bloodstream forms in culture (cidal/static) ([2]; 2× and 5× EC50): trypanostatic | AVG of cells/mL ([2]; 5xEC50, 2 h, experiment 1): 118750 cells/mL | Cells/mL ([2]; 5xEC50, 2 h, experiment 1): 130000 Cells/mL and 107500 Cells/mL | Counts ([2]; 5xEC50, 2 h, experiment 1): 52 and 43 | AVG of cells/mL ([2]; 5xEC50, 2 h, experiment 2): 130000 cells/mL | Cells/mL ([2]; 5xEC50, 2 h, experiment 2): 137500 Cells/mL and 122500 Cells/mL | Counts ([2]; 5xEC50, 2 h, experiment 2): 55 and 49 | AVG of cells/mL ([2]; 5xEC50, 4 h, experiment 1): 138750 cells/mL | Cells/mL ([2]; 5xEC50, 4 h, experiment 1): 132500 Cells/mL and 145000 Cells/mL | Counts ([2]; 5xEC50, 4 h, experiment 1): 58 and 53 | AVG of cells/mL ([2]; 5xEC50, 4 h, experiment 2): 130000 cells/mL | Cells/mL ([2]; 5xEC50, 4 h, experiment 2): 125000 Cells/mL and 135000 Cells/mL | Counts ([2]; 5xEC50, 4 h, experiment 2): 54 and 50 | AVG of cells/mL ([2]; 5xEC50, 6 h, experiment 1): 186250 cells/mL | Cells/mL ([2]; 5xEC50, 6 h, experiment 1): 195000 Cells/mL and 177500 Cells/mL | Counts ([2]; 5xEC50, 6 h, experiment 1): 78 and 71 | AVG of cells/mL ([2]; 5xEC50, 6 h, experiment 2): 162500 cells/mL | Cells/mL ([2]; 5xEC50, 6 h, experiment 2): 155000 Cells/mL and 170000 Cells/mL | Counts ([2]; 5xEC50, 6 h, experiment 2): 62 and 68 | AVG of cells/mL ([2]; 5xEC50, 8 h, experiment 1): 160000 cells/mL | Cells/mL ([2]; 5xEC50, 8 h, experiment 1): 162500 Cells/mL and 157500 Cells/mL | Counts ([2]; 5xEC50, 8 h, experiment 1): 65 and 63 | AVG of cells/mL ([2]; 5xEC50, 8 h, experiment 2): 125000 cells/mL | Cells/mL ([2]; 5xEC50, 8 h, experiment 2): 122500 Cells/mL and 127500 Cells/mL | Counts ([2]; 5xEC50, 8 h, experiment 2): 49 and 51 | AVG of cells/mL ([2]; 5xEC50, 12 h, experiment 1): 176250 cells/mL | Cells/mL ([2]; 5xEC50, 12 h, experiment 1): 190000 Cells/mL and 162500 Cells/mL | Counts ([2]; 5xEC50, 12 h, experiment 1): 76 and 65 | AVG of cells/mL ([2]; 5xEC50, 12 h, experiment 2): 166250 cells/mL | Cells/mL ([2]; 5xEC50, 12 h, experiment 2): 175000 Cells/mL and 157500 Cells/mL | Counts ([2]; 5xEC50, 12 h, experiment 2): 70 and 63 | AVG of cells/mL ([2]; 5xEC50, 24 h, experiment 1): 146250 cells/mL | Cells/mL ([2]; 5xEC50, 24 h, experiment 1): 135000 Cells/mL and 157500 Cells/mL | Counts ([2]; 5xEC50, 24 h, experiment 1): 54 and 63 | AVG of cells/mL ([2]; 5xEC50, 24 h, experiment 2): 126250 cells/mL | Cells/mL ([2]; 5xEC50, 24 h, experiment 2): 115000 Cells/mL and 137500 Cells/mL | Counts ([2]; 5xEC50, 24 h, experiment 2): 46 and 55 | AVG of cells/mL ([2]; 5xEC50, 36 h, experiment 1): 146250 cells/mL | Cells/mL ([2]; 5xEC50, 36 h, experiment 1): 147500 Cells/mL and 145000 Cells/mL | Counts ([2]; 5xEC50, 36 h, experiment 1): 59 and 58 | AVG of cells/mL ([2]; 5xEC50, 36 h, experiment 2): 138750 cells/mL | Cells/mL ([2]; 5xEC50, 36 h, experiment 2): 145000 Cells/mL and 132500 Cells/mL | Counts ([2]; 5xEC50, 36 h, experiment 2): 58 and 53 | AVG of cells/mL ([2]; 5xEC50, 48 h, experiment 1): 112500 cells/mL | Cells/mL ([2]; 5xEC50, 48 h, experiment 1): 112500 Cells/mL | Counts ([2]; 5xEC50, 48 h, experiment 1): 45 | AVG of cells/mL ([2]; 5xEC50, 48 h, experiment 2): 75000 cells/mL | Cells/mL ([2]; 5xEC50, 48 h, experiment 2): 65000 Cells/mL and 85000 Cells/mL | Counts ([2]; 5xEC50, 48 h, experiment 2): 26 and 34 | P2 transporter ΔG^0 ([3]; Gibbs free energy from −RT ln(Ki)): -7.77 kcal/mol | IC50 ([3]; P2 transporter IC50, single experiments, [L] 0.033 or 0.1 per experiment): 2.52 µM and 3.86 µM and 4.39 µM | Ki ([3]; AVG, source data): 3.02 µM | Ki ([3]; single experiments, Cheng–Prusoff from IC50): 2.11 µM and 3.24 µM and 3.69 µM | P2 transporter δ(ΔG^0) ([3]; in comparison to adenosine): 0.789 kcal/mol
